Literature values, collected in US20200253951A1, “COMBINATION OF AN […] AGENT WITH […]/OR DO[…] FOR USE IN PREVENTING/STOPPING OF AXIAL MYOPIA IN HUMAN” (priority 2016, published 2020).

Assays:
conjunctiva = conditions: pediatric population, atropine 0,1%, 0,05% and 0,01%
axial myopia = conditions: one drop of 1% Atropine collirium at bedtime, chinese children, placebo controlled

In the case of `CN1[C@@H]2CC[C@H]1C[C@@H](OC(=O)C(CO)c1ccccc1)C2` (some centres unmarked) [Atropine], the “subjects who developed ocular redness and itching” value (conjunctiva) is listed as “around 5%” and the “subjects in whom development of axial myopia was halted (stopping the elongation of the bulb)” value (axial myopia) is listed as 90%.
